The text below walks through data of PMC4741889, “Ligand-based chemoinformatic discovery of a novel small molecule inhibitor targeting CDC25 dual specificity phosphatases and displaying in vitro efficacy against melanoma cells” (Oncotarget, 2015).

What all share (type): cell-based, human
The subject of assay [1] is A2058 cells. As to the kind of experiment: Cell cycle analysis by PI flow cytometry, A2058 cells. The note with it: A2058, 100 μM. As to the method: As CDC25 phosphatases are key cell cycle regulators, the effect of 7 on cell cycle progression was investigated in detail. To this aim, asynchronously growing A2058 and SAN cells were treated at different times with 100 μM compound 7, and then cell cycle analysis was cytofluorimetrically monitored after propidium iodide (PI) incorporation. […] After 16-h incubation with […], cells were mainly and almost equally distributed in G0/G1 and G2/M phases (the ratio between them being 0.96), whereas the cellular population in the S phase was essentially undetectable. […] A similar general picture emerged from the effect of compound 7 on cell cycle progression of SAN cells (Supplementary Figure S3).
Cells were seeded into 6-well plates at 3 × 10^5 cells/well for 24 h at 37°C; after the addition of 100 μM 7 or 0.5% DMSO as a vehicle control, the incubation of treated cells continued for 16 or 24 h. After each treatment, cells were harvested with trypsin, centrifuged and the pellet was resuspended in phosphate-buffered saline (PBS). For cell cycle analysis, cells were fixed with 70% (v/v) cold ethanol and stored at −20°C for 1 h. […] After incubation at 4°C for 30 min, cells were analyzed with a FACScan flow cytometer (Becton Dickinson) for evaluating the distribution in cell cycle phases or the presence of nuclei with a DNA content lower than the diploid.
(Flow cytometry measures light scatter and fluorescence of single cells or particles in a stream.)

Assay [2] relates to A2058 cells. Nature of the assay: Intracellular ROS level (DCFH-DA), A2058 cells. As to the method:
The high redox reactivity of quinonoid molecules, like compound 7, could greatly perturb the intracellular redox state. […] The oxidant effect of 7 was also evaluated after cell pre-treatment with two antioxidant molecules, such as N-acetyl-cysteine (NAC) and the specific inhibitor of NADPH oxidase, apocynin. To this aim, A2058 and SAN cells were pre-incubated for 1 h with 10 mM NAC or 45 min with 0.5 mM apocynin and then treated for 4 h with 100 μM compound 7. […] The cytotoxic activity of 7 could be mediated by the observed increase of ROS level.
The intracellular ROS level was monitored using the oxidation-sensitive fluorescence probe DCFH-DA. Cells were seeded into 6-well-plates (3 × 10^5 cells/plate) for 24 h at 37°C and then treated at various times with 100 μM compound 7 or 0.5% DMSO. DCFH-DA was added in the dark at 10 μM final concentration 30-min before the end of each incubation; then, cells were collected, washed in PBS, and finally resuspended in 500 μL PBS for fluorimetric analysis. Measurements were realized in a Cary Eclipse fluorescence spectrophotometer (Varian); excitation and emission wavelengths were set at 485 nm and 530 nm, respectively; both excitation and emission slits were set at 10 nm. The effect of 7 on ROS production was also estimated after pretreatment of cells with 10 mM NAC for 1 h.

In the next assay the test system is pAkt protein levels. As to the kind of experiment: Western blotting of pAkt (Ser473) in A2058 cells. The note with it: A2058, 100 μM, 2 and 4 h. How it is done:
The molecular mechanisms that regulate the cytotoxic potential of 7 in melanoma cells were further investigated through the evaluation of the activation state of protein kinase B (pAkt), one of the key proteins involved in the control and regulation of cell survival. To this aim, the protein levels of pAkt have been analyzed after 2- and 4-h incubation of A2058 cells with 7. […] It is known that Akt regulates the process of cell survival by phosphorylating different substrates, directly or indirectly involved in the apoptotic program. One of these targets is p53, a protein with a tumor-suppressor activity that regulates the cell cycle, as well as the expression of several genes involved in the apoptosis. […]
A2058 cells were seeded into 6-well-plates (3 × 10^5 cells/plate) for 24 h at 37°C and then treated at different times with 100 μM compound 7 or 0.5% DMSO. […] The protein concentration was determined by the method of Bradford, using bovine serum albumin (BSA) as standard. […] Membranes were then analysed by an enhanced chemiluminescence reaction, using Super Signal West Pico kit (Pierce) according to manufacturer's instruction; signals were visualized by autoradiography.
For orientation: In western blotting, separated proteins are transferred to a membrane and probed.

Another assay concerns caspase-3 activity. As to the kind of experiment: Caspase-3 enzymatic activity in A2058 cells. Particulars: A2058, 100 μM. The text has this:
PI incorporation followed by flow cytometric analysis was used to detect the effect of 7 on the number of nuclei with a sub-diploid content, a typical hallmark of apoptosis. A time-dependent increase of apoptosis was evident in both A2058 and SAN cells and in particular, the effect of 7 on cell death program was already evident after 24-h treatment (Figure 7). […] To further investigate on the capacity of 7 to induce apoptosis, the enzymatic activity of caspase-3, the final effector of apoptotic program, was monitored.
To estimate caspase-3 and caspase-9 activity during the treatment with compound 7, the respective enzymatic activities were measured by using caspase-3 and -9 fluorimetric assay kits, according to the manufacturer's protocol, essentially as previously described. Briefly, cells were seeded into 75 cm^2 plates (2 × 10^6 cells/plate) for 24 h at 37°C and then treated with 100 μM 7 or 0.5% DMSO. At the end of each incubation, cells were collected, washed with PBS, and finally lysed at 4°C in the cell lysis buffer. Cell lysates were incubated with 50 μM DEVD-AFC or LEHD-AFC substrates at 37°C for 2 h, to detect caspase-3 or caspase-9 activity, respectively, using a Cary Eclipse fluorescence spectrophotometer (Varian). Excitation and emission wavelengths were set at 400 nm and 505 nm, respectively; both excitation and emission slits were set at 10 nm.

The next assay deals with CDC25C protein levels. As to the kind of experiment: Western blotting of CDC25C protein levels in A2058 cells. The note with it: A2058, 100 μM, from 4 h up to 16 h. As to the method:
To better investigate the effect of this inhibitor at the molecular level, we evaluated if the treatment of A2058 cells with 7 affected also the protein levels of the three CDC25 forms. […] On the other hand, the protein levels of CDC25B were unaffected by treatment of A2058 cells with 7 up to 16 h.
A2058 cells were seeded into 6-well-plates (3 × 10^5 cells/plate) for 24 h at 37°C and then treated at different times with 100 μM compound 7 or 0.5% DMSO. After treatment, cells were harvested, washed with PBS and then lysed in ice-cold modified radio immunoprecipitation assay (RIPA) buffer (50 mM Tris-HCl, pH 7.4, 150 mM NaCl, 1% Nonidet P-40, 0.25% sodium deoxycholate, 1 mM Na3VO4 and 1 mM NaF), supplemented with protease inhibitors and incubated for 30 min on ice. The supernatant obtained after centrifugation at 12,000 rpm for 30 min at 4°C constituted the total protein extract. The protein concentration was determined by the method of Bradford, using bovine serum albumin (BSA) as standard. Equal amounts of total protein extracts were used for Western blot analysis. […] Membranes were then analysed by an enhanced chemiluminescence reaction, using Super Signal West Pico kit (Pierce) according to manufacturer's instruction; signals were visualized by autoradiography.

Take `O=C(O)C1CCCCC1c1c2ccc(=O)cc-2oc2cc(O)ccc12` (centres unmarked) [Compound 7, 2-(6-hydroxy-3-oxo-3H-xanthen-9-yl)cyclohexanecarboxylic acid]: the “ratio between G0/G1 and G2/M” value with A2058 cells [1] (16 h, vehicle 0.96) was found to be 0.38; in the assay with A2058 cells [1] (24 h, untreated 1.23), 0.45. The “intracellular ROS level” value in the assay on A2058 cells [2] (A2058, 100 μM, significant after 4 h) is “time-dependent increase of the ROS level”. For the same compound, the “increase of ROS level after apocynin pre-treatment” value in the assay with A2058 cells [2] (A2058, 0.5 mM apocynin 45 min, then 100 μM 7 for 4 h) is reported as “did not prevent the increase of ROS level”. Further, in the assay with A2058 cells [2] (A2058, 10 mM NAC 1 h, then 100 μM 7 for 4 h), the “increase of ROS level after NAC pre-treatment” value is recorded as “prevented by the NAC treatment”. Further, the “protein level of pAkt with respect to total Akt” value in the assay with pAkt protein levels is recorded as “early reduction of the protein level of pAkt”. For the same compound, the caspase-3 enzymatic activity entry in the assay with caspase-3 activity was “significant increase of the enzymatic activity of caspase-3”. Further, the CDC25C protein levels entry in the assay with CDC25C protein levels is “progressive and significant reduction of CDC25C protein levels”.
